For one data set, the species on record is Homo sapiens. The data set can be described thus: (§1) Inhibition of human recombinant protein farnesyl transferase expressed in Escherichia coli.
Data set [1] is described as follows: Inhibition of geranylgeranyl protein transferase.
Data set [2] addresses T1, Squalene synthase (Homo sapiens) (UniProt P37268).
T1 sequence (whole entry): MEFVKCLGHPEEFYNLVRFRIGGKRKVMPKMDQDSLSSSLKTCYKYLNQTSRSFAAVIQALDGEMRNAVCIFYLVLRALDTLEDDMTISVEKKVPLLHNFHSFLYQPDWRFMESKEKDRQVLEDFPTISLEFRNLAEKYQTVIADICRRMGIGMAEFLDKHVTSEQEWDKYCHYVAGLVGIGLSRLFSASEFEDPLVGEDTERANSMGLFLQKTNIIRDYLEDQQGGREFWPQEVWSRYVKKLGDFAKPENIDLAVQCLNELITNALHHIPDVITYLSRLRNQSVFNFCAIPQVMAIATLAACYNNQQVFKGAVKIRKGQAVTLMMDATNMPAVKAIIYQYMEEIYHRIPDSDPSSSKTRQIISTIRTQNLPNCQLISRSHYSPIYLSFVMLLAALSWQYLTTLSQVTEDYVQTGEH
Kind of data set: Inhibition of squalene synthase.

The next data set deals with NIH3T3. The data set can be described thus: Inhibition of Ras expression in mouse NIH/3T3 cells at 50 uM. In kind it is functional, cell-based.
Data set [3] in a line: as §1.
The nature of data set [4]: Cytotoxicity against mouse NIH/3T3 cells at 50 uM. The following applies: nih3t3, 50 µM. In kind it is cell-based.

Structures are written as SMILES. The source made the active and inactive calls. The calls are words filed in the database; no cut-off is given here.

For `COC(=O)C[C@](C)(O)CC(=O)O[C@@H]1C[C@]2(C)C3=C(CC[C@H]2C(C)(C)C1=O)[C@]1(C)CC[C@H]([C@H](C)CCC(O)C(C)(C)O)[C@@]1(C)CC3` (some centres not stated), the outcome in the data set listed under Homo sapiens was inactive.
Usually IC50 stands for the point on the concentration scale where inhibition reaches its midpoint. Take `C[C@H](CCC(O)C(C)(C)O)[C@H]1CC[C@@]2(C)C3=C(CC[C@]12C)[C@@]1(C)C[C@@H](OC(=O)CC(C)(O)CC(=O)O)C(=O)C(C)(C)[C@@H]1CC3` (some centres not stated) [CLAVARIC ACID]: the result in data set [1] and in data set [2] was inactive. The result in the data set on NIH3T3 was Active. Moreover, the IC50 in data set [3] was 1.3 µM. Besides, the Activity result in data set [4] is given as “Non-toxic”.
With `C[C@H](CCC(O)C(C)(C)O)[C@H]1CC[C@@]2(C)C3=C(CC[C@]12C)[C@@]1(C)C[C@@H](O)C(=O)C(C)(C)[C@@H]1CC3` (some centres not stated) [CLAVARINONE], the IC50 in data set [3] was determined as 10.5 µM.

Source of the values: ChEMBL document CHEMBL1151335, “Clavaric acid: a triterpenoid inhibitor of farnesyl-protein transferase from Clavariadelphus truncatus” (J Nat Prod, 1998).
